Here are results for 32 compounds from PubChem BioAssay (NCI).

Common to all, as to assay: DTP human tumour cell line panel, 48 h
Experiment [1] has as its system LOX IMVI melanoma.
For experiment [2], the system named is NCI-H522 lung.
Experiment [3] has as its system TK-10 renal.
Experiment [4] deals with SF-539 CNS.
The test system of experiment [5] is NCI-H23 lung.
Experiment [6] deals with A498 renal.
Experiment [7] concerns HCC-2998 colon.
The subject of experiment [8] is HT29 colon.
The subject of experiment [9] is BT-549 breast.
For experiment [10], the system named is MCF7 breast.

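Exposure lasted 48 hours, with cells grown in 96-well plates and compounds tested at five concentrations. Here, GI50 denotes the concentration required for 50% inhibition of growth. TGI: total growth inhibition.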 Bounds are passed on as bounds.

Consider `COc1ccc2nc3cc(Cl)ccc3c(Sc3ccc(N)cc3)c2c1`, for which the TGI in experiment [1] came to 20.9 µM; in experiment [2] it was 16.2 µM; in experiment [3], 25.9 µM; in [4], 27.9 µM; in experiment [5], 27.9 µM; in experiment [6], 76.3 µM. In [7], this compound came in with a TGI of 25.1 µM.

For `CC(C)(C)OC(=O)N(CCCCN(CCCn1c2c(c3ccccc3c1=O)C(=O)c1ccccc1-2)C(=O)OC(C)(C)C)CCCn1c2c(c3ccccc3c1=O)C(=O)c1ccccc1-2`, the GI50 was 54.6 µM in [8]; 18.6 µM in [1]; 26.2 µM in experiment [2]; more than 100 µM in experiment [3]; 8.79 µM in [4]; 25 µM in [5]. In addition, the GI50 is more than 100 µM in [9] and 10.9 µM in [7]. Further, the total growth inhibition concentration (TGI) in [8] is more than 100 µM; in experiment [1] it was more than 100 µM; in experiment [2] it was more than 100 µM; in experiment [3], more than 100 µM; in [4] it was 33.1 µM; in experiment [5], more than 100 µM. Further, the TGI was more than 100 µM in experiment [9] and 41 µM in [7].

On to `COc1ccc(C2=C(OC(C)=O)c3cccn3-c3ccc(Cl)cc3S2)cc1`, for which the total growth inhibition concentration (TGI) in experiment [10], in experiment [8], in [1], in [3], in [5] and in experiment [7] was more than 10 µM in each case.

As for `CN(c1cccc(C(=O)O)c1)c1cc(O/N=[N+](\[O-])N(C)C)c([N+](=O)[O-])cc1[N+](=O)[O-]`, the GI50 in experiment [10] is 59.8 µM; in [8], more than 100 µM; in experiment [1], 47.6 µM; in [2], more than 100 µM; in [3], more than 100 µM; in experiment [4], more than 100 µM. The GI50 in experiment [5] and in experiment [9] was more than 100 µM throughout. The TGI in experiment [10], in experiment [8], in [1], in [2], in experiment [3] and in experiment [4] was more than 100 µM each time. In addition, the TGI in experiment [5] and in experiment [9] was more than 100 µM in each case.

Turning to `Cn1c(=O)nc2n(-c3ccc(Br)cc3)c3ccccc3nc-2c1=O`, the concentration for total growth inhibition (TGI) was found to be 7.44 µM in experiment [8]; 18.4 µM in [2]; 32.8 µM in [3]; 19.6 µM in [4]; 4.2 µM in experiment [5]; 26.9 µM in experiment [6]. The same compound gave a total growth inhibition concentration (TGI) in [7] of 10.8 µM.

On to `C=CCCC(O)c1cc(C)c(O)c(C)c1` (stereo unspecified), for which the total growth inhibition concentration (TGI) in experiment [1], in experiment [2], in experiment [3], in experiment [4], in experiment [5] and in experiment [6] was more than 100 µM throughout. Moreover, in experiment [7], the concentration for total growth inhibition (TGI) is more than 100 µM.

As to `CCCCC[C@@H]1CCCC2NC(CCCCCO[Si](c3ccccc3)(c3ccccc3)C(C)(C)C)CCC21` (stereo partly specified), the TGI is 16.1 µM in experiment [8]; 28.1 µM in [1]; 31.6 µM in experiment [2]; 34.8 µM in [3]; 29.8 µM in experiment [4]; 31.7 µM in [5]. Also, the TGI amounted to 31.9 µM in experiment [6] and 25.1 µM in experiment [7].

Turning to `CNc1c2ccccc2nc2occ(Cl)c12`, the GI50 was 32.3 µM in [10]; 25.5 µM in experiment [1]; 80.3 µM in experiment [2]; 17.9 µM in experiment [3]; 40.9 µM in [5]; 11.9 µM in experiment [6]. Besides, the GI50 in experiment [7] was 36 µM. The TGI in experiment [10] was more than 100 µM; in [1], 75.2 µM; in experiment [2], more than 100 µM; in [3], 56.7 µM; in experiment [5], more than 100 µM; in experiment [6] it was 41.7 µM. Also, in experiment [7], the TGI is more than 100 µM.

Turning to `COC1CCCc2c(OC(C)=O)ccc(OC(C)=O)c21` (stereo unspecified), the TGI in [1], in experiment [3], in experiment [5] and in experiment [7] was more than 100 µM throughout.

`O=c1[nH]c2nc3ccccc3c(=O)n2nc1Cc1ccccc1`: the total growth inhibition concentration (TGI) in experiment [8], in [1], in experiment [2], in [4], in experiment [5] and in experiment [7] was more than 100 µM throughout.

For `N#CN1CC[C@@H]2CC3(CCC2C1)OCCO3` (stereo partly specified), the TGI in experiment [8], in [3], in experiment [4], in experiment [5], in experiment [6] and in experiment [7] was more than 100 µM in each case.

As for `O=C(c1ccccc1)c1nc2c(Cl)ccc(Cl)c2cc1C(Br)Br`, the concentration for total growth inhibition (TGI) in experiment [1] was 3.07 µM; in experiment [2], 2.9 µM; in [3], 2.81 µM; in experiment [4] it was 1.76 µM; in experiment [7], 4.92 µM.

Regarding `C=CC[P@]1(=O)O[C@H](c2ccccc2)C(C)N1C(C)C` (stereo partly specified), the TGI in experiment [8], in experiment [1], in experiment [2], in experiment [3], in experiment [4] and in [5] was more than 100 µM throughout. The concentration for total growth inhibition (TGI) in experiment [6] and in [7] was more than 100 µM throughout.

On to `CCOC(=O)c1ccc(N=Cc2ccc(N(CCC#N)S(=O)(=O)c3ccccc3)cc2C)cc1`, for which the total growth inhibition concentration (TGI) in experiment [8], in experiment [1], in [2], in experiment [3], in experiment [4] and in experiment [5] was more than 100 µM each time. Further, the TGI was more than 100 µM in experiment [6] and 58.1 µM in experiment [7].

In the case of `N.N.N.N.N#N.N#N.[Cl-].[Os+6]`, the GI50 in [1], in [2], in experiment [3], in experiment [4], in experiment [5] and in experiment [7] was more than 100 µM throughout. The concentration for total growth inhibition (TGI) in [1], in experiment [2], in experiment [3], in experiment [4], in experiment [5] and in [7] was more than 100 µM in each case.

In the case of `Cc1c(C)c2cc3c(=O)c(CCl)coc3c(C)c2oc1=O`, the concentration for total growth inhibition (TGI) in [1], in [2], in experiment [3], in experiment [4], in [5] and in [6] was more than 100 µM each time. In addition, the TGI in experiment [7] is more than 100 µM.

On to `COCN1COCN(C)C1=O`, for which the concentration for total growth inhibition (TGI) in experiment [8], in [1], in [3], in experiment [4], in experiment [5] and in experiment [6] was more than 100 µM each time. Besides, the TGI in [7] was more than 100 µM.

In the case of `CN(C)CCNC(=O)c1ccc2c(c1)oc1cc3ccccc3c(=O)n12`, the GI50 in experiment [8] was 18.1 µM; in experiment [1], 1.91 µM; in [3] it was 12.9 µM; in experiment [5], 31.8 µM; in experiment [9] it was 25.9 µM. Further, the TGI was 40.4 µM in [8]; 11 µM in experiment [1]; 31.4 µM in [3]; more than 100 µM in experiment [5]; 45.8 µM in [9].

Consider `COc1ccc2c(c1OC)C(=O)C2`, for which the TGI in experiment [8], in experiment [1], in [2], in [3] and in experiment [5] was more than 100 µM in each case.

For the compound `O=C(NCCCN1CCN(CCCNC(=O)c2cccc3ccccc23)CC1)c1cccc2ccccc12`, the TGI in [8], in experiment [1], in experiment [3], in [4], in [5] and in experiment [6] was more than 100 µM each time. Further, the TGI in [7] is more than 100 µM.

Regarding `O=C(CC1(O)C(=O)Nc2ccccc21)c1ccc(Cl)c(Cl)c1` (stereo unspecified), the concentration for total growth inhibition (TGI) in experiment [8], in experiment [1], in experiment [2], in experiment [4], in experiment [5] and in experiment [6] was more than 100 µM throughout. In addition, the TGI in experiment [7] is more than 100 µM.

As to `S=C1SCC2CCCN12` (stereo unspecified), the TGI in experiment [8], in experiment [1], in experiment [2], in experiment [3], in experiment [4] and in experiment [6] was more than 100 µM in each case. In addition, the TGI in experiment [7] is more than 100 µM.

Regarding `Cc1nc(-n2nc(-c3ccccc3)cc2-c2ccccc2)sc1C(=O)CC(=O)C(=O)Nc1ccc(Cl)c(Cl)c1`, the TGI in experiment [8], in [1], in experiment [2], in experiment [3], in experiment [4] and in [5] was more than 100 µM each time. Also, the concentration for total growth inhibition (TGI) in experiment [6] and in [7] was more than 100 µM in each case.

On to `CC1=CC(=O)NP(=O)(Oc2ccc(Cl)cc2)N1` (stereo unspecified), for which the TGI in [8], in [1], in [2], in experiment [3], in [4] and in [5] was more than 100 µM each time. In experiment [6], the TGI is more than 100 µM.

On to `CC(C)(C)C1=CC(=N/N=c2\scc(-c3ccccc3)n2Cc2ccccc2)C=C(C(C)(C)C)C1=O`, for which the concentration for total growth inhibition (TGI) in [8], in experiment [1], in [4], in experiment [5], in [6] and in experiment [7] was more than 100 µM throughout.

Turning to `CC(=O)OC1(Sc2ccccc2)CC2[C@H]3COC(C)(C)O[C@H]3CC[C@@]2(C)CC1=O` (stereo partly specified), the total growth inhibition concentration (TGI) was more than 100 µM in experiment [8]; 79.8 µM in experiment [2]; more than 100 µM in experiment [3]; 95.9 µM in experiment [4]; more than 100 µM in experiment [5].

With `COc1ccc(-c2cc(=O)c3c(O)c(O)c(OC)cc3o2)cc1O`, the TGI in experiment [8], in [1], in experiment [2], in [3], in [4] and in experiment [5] was more than 100 µM in each case. Also, the concentration for total growth inhibition (TGI) in experiment [6] and in experiment [7] was more than 100 µM each time.

Regarding `Cc1nc2ccccc2c(=O)n1/N=C(\N=Nc1ccc(Cl)cc1)c1cccc(-c2ccco2)c1`, the TGI in experiment [8] is more than 100 µM; in experiment [1] it was more than 100 µM; in experiment [2], 54.4 µM; in experiment [3], more than 100 µM; in experiment [4], 98.4 µM; in [5] it was 65.2 µM. Further, the TGI in experiment [6] is more than 100 µM.

Take `CC(C)(C)c1cc(C2c3cc4c(cc3OC(O)(CO)C2C(=O)O)OCO4)cc(C(C)(C)C)c1O` (stereo unspecified) (tested in a mixture with another compound): the TGI in [8] came to 27.2 µM; in experiment [1], 29.1 µM; in experiment [3], 45.4 µM; in experiment [4], 25.8 µM; in experiment [5], 29.6 µM.

Regarding `Cc1cccc(NC(=O)c2c(N)[n+]([O-])c3ccccc3[n+]2[O-])c1`, the TGI in experiment [8] is 27.7 µM; in [2] it was 20 µM; in experiment [4], 16.4 µM; in experiment [5] it was 23.4 µM; in [6] it was 29.8 µM.

Turning to `CC1(Cl)C(=O)NC(=O)N([C@H]2C[C@H](O)[C@@H](CO)O2)C1N=[N+]=[N-]` (stereo partly specified), the TGI in experiment [8], in experiment [1], in experiment [2], in experiment [3], in experiment [4] and in [5] was more than 100 µM throughout. Moreover, the TGI in experiment [6] and in experiment [7] was more than 100 µM throughout.

Consider `O=C(n1c2ccccc2c2n[nH]c(=S)nc21)C(F)(F)F`, for which the TGI in experiment [8], in experiment [1], in experiment [2], in [3], in experiment [4] and in experiment [5] was more than 100 µM each time. Moreover, the total growth inhibition concentration (TGI) in [7] is more than 100 µM.

By TGI is commonly meant the concentration at which net growth stops. A higher TGI goes with lower sensitivity of the cells. In general, GI50 refers to the concentration that inhibits growth by half.
